Measured values from US3953474A.

How the values were obtained:
[1] = tested on: E. tenella; assay: Efficacy against E. tenella in broiler cockerels (Table I); format: in vivo, Eimeria tenella; settings: for Percent Mortality: due to coccidiosis; for Percent Weight Gain: normal controls = 100; for Average Cecal Lesion Score: scale 0-4
Method: (§1) The anticoccidial effects of the A204I derivatives are illustrated by the effects of various of the compounds in controlling single-species infections of Eimeria tenella, Eimeria necatrix, Eimeria mivati, and Eimeria brunetti and a multiple-species infection of Eimeria maxima and Eimeria tenella in chickens.
(§2) For these studies, groups of five 7-day-old chicks were fed a mash diet containing therein a uniformly dispersed A204I derivative. After having been on this ration for 48 hours, each bird was inoculated with sporulated oocysts of the particular species of Eimeria being tested.
(§3) Some of these groups were also inoculated with Eimeria after 48 hours and served as infected controls. Other of these groups were not inoculated with Eimeria and served as normal controls. The results of treatment were evaluated 7 days after inoculation. The birds were weighed, sacrificed and examined for evidence of coccidial lesions. Coccidial involvement was expressed on an arbitrary scale, increasing from zero (no evidence of coccidiosis) to four (maximum involvement for the Eimeria sp. tested). The percent reduction in lesion score is calculated by subtracting the average lesion score of the treated group from the average lesion score of the infected control group, dividing this difference by the average lesion score of the infected control group, and multiplying the quotient by 100.
(§4) The percent weight gain is calculated using the weight gain of normal controls as 100 percent.

[2] = Acute oral toxicity in mice; settings: mouse, in vivo
Description: The acute toxicities in mice of various of the A204I derivatives, also administered orally and expressed as LD50, are as follows: […]

[3] = tested on: E. necatrix; assay: Efficacy against E. necatrix in broiler cockerels (Table II); format: in vivo, Eimeria necatrix; settings: for Percent Mortality: due to coccidiosis; for Percent Weight Gain: normal controls = 100; for Average Intestinal Lesion Score: scale 0-4; for Percent Reduction Lesion Score: vs infected controls
Method: as §1, §2, §3, §4

[4] = tested on: E. mivati; assay: Efficacy against E. mivati in broiler cockerels (Table III); format: in vivo, Eimeria mivati; settings: for Percent Mortality: due to coccidiosis; for Percent Weight Gain: normal controls = 100; for Average Intestinal Lesion Score: scale 0-4; for Percent Reduction Lesion Score: vs infected controls
Method: as §1, §2, §3, §4

[5] = tested on: E. brunetti; assay: Efficacy against E. brunetti in broiler cockerels (Table IV); format: in vivo, Eimeria brunetti; settings: for Percent Mortality: due to coccidiosis; for Percent Weight Gain: normal controls = 100; for Average Lesion Score: scale 0-4; for Percent Reduction Lesion Score: vs infected controls
Method: as §1, §2, §3, §4

[6] = tested on: E. maxima and E. tenella; assay: Efficacy against a mixed infection of E. maxima and E. tenella in broiler cockerels (Table V); format: in vivo, Eimeria maxima and Eimeria tenella; settings: for Percent Mortality: due to coccidiosis; for Percent Weight Gain: normal controls = 100; for Cecal Lesions, Average Lesion Score / Intestinal Lesions, Average Lesion Score: scale 0-4; for Intestinal Lesions, Percent Reduction Lesion Score / Cecal Lesions, Percent Reduction Lesion Score: vs infected controls
Method: as §1, §2, §3, §4

[7] = Rat feeding studies (Table VII); format: in vivo, rats; settings: 14 days, mean
Method: For this test, five rats of each sex were studied for 14 days at each treatment level. The mean changes in body weight and the mean amounts of food ingested were calculated for each group.

[8] = pKa' determination; settings: 66% aqueous dimethylformamide
[9] = second experiment, .0025 percent in diet
[10] = second experiment, .0025 percent in diet, vs infected control
[11] = first experiment, .00165 percent in diet
[12] = first experiment, .0066 percent in diet
[13] = second experiment, .005 percent in diet

SMILES: COCCOC1(C(C)C(=O)O)OC(CC2CC(OC)C(C)C3(O2)OC(C)(C2CCC(C4CCC(C5OC(C)(O)C(C)C(OC)C5C)O4)O2)C(OC)C3C)C(C)(OC)C(OC2CCC(OC)C(C)O2)C1C (stereo not shown) [A204I 2-methoxyethyl ether derivative]
- Percent Mortality [1, 9]: 0%
- Percent Weight Gain [1, 9]: 90%
- Average Cecal Lesion Score [1, 9]: 2.9
- Percent Reduction Lesion Score [1, 10]: < 40%

SMILES: COC1CCC(OC2C(C)C(OC(C)C)(C(C)C(=O)O)OC(CC3CC(OC)C(C)C4(O3)OC(C)(C3CCC(C5CCC(C6OC(C)(O)C(C)C(OC)C6C)O5)O3)C(OC)C4C)C2(C)OC)OC1C (stereo not shown) [A204I isopropyl ether, A204I isopropyl ether derivative]
- Percent Mortality [1, 9]: 0%
- Percent Weight Gain [1, 9]: 95%
- Average Cecal Lesion Score [1, 9]: 2.3
- Percent Reduction Lesion Score [1, 10]: < 40%
- LD50 [2]: 20 to 36 mg/kg

SMILES: CCCOC1(C(C)C(=O)O)OC(CC2CC(OC)C(C)C3(O2)OC(C)(C2CCC(C4CCC(C5OC(C)(O)C(C)C(OC)C5C)O4)O2)C(OC)C3C)C(C)(OC)C(OC2CCC(OC)C(C)O2)C1C (stereo not shown) [A204I n-propyl ether, A204I n-propyl ether derivative]
- Percent Mortality [1, 11]: 35%
- Percent Weight Gain [1, 11]: 79%
- Average Cecal Lesion Score [1, 11]: 4.0
- Percent Reduction Lesion Score ([1]; first experiment, .00165 percent in diet, vs infected controls): 0%
- Percent Mortality [1, 12]: 20%
- Percent Weight Gain [1, 12]: 79%
- Average Cecal Lesion Score [1, 12]: 3.7
- Percent Reduction Lesion Score ([1]; first experiment, .0066 percent in diet, vs infected controls): 0%
- Percent Mortality [1, 9]: 0%
- Percent Weight Gain [1, 9]: 87%
- Average Cecal Lesion Score [1, 9]: 1.8
- Percent Reduction Lesion Score [1, 10]: 50%
- Percent Mortality [1, 13]: 0%
- Percent Weight Gain [1, 13]: 96%
- Average Cecal Lesion Score [1, 13]: 0
- Percent Reduction Lesion Score ([1]; second experiment, .005 percent in diet, vs infected control): 100%
- Percent Mortality ([3]; .0025 percent in diet): 0%
- Percent Weight Gain ([3]; .0025 percent in diet): 63%
- Average Intestinal Lesion Score ([3]; .0025 percent in diet): 1.6
- Percent Reduction Lesion Score ([3]; .0025 percent in diet): 59%
- Percent Mortality ([3]; .005 percent in diet): 6.7%
- Percent Weight Gain ([3]; .005 percent in diet): 92%
- Average Intestinal Lesion Score ([3]; .005 percent in diet): 0.2
- Percent Reduction Lesion Score ([3]; .005 percent in diet): 95%
- Percent Mortality ([3]; .01 percent in diet): 0%
- Percent Weight Gain ([3]; .01 percent in diet): 89%
- Average Intestinal Lesion Score ([3]; .01 percent in diet): 0
- Percent Reduction Lesion Score ([3]; .01 percent in diet): 100%
- Percent Mortality ([4]; .0025 percent in diet): 0%
- Percent Weight Gain ([4]; .0025 percent in diet): 94%
- Average Intestinal Lesion Score ([4]; .0025 percent in diet): 0.27
- Percent Reduction Lesion Score ([4]; .0025 percent in diet): 85%
- Percent Mortality ([4]; .005 percent in diet): 0%
- Percent Weight Gain ([4]; .005 percent in diet): 97%
- Average Intestinal Lesion Score ([4]; .005 percent in diet): 0
- Percent Reduction Lesion Score ([4]; .005 percent in diet): 100%
- Percent Mortality ([4]; .01 percent in diet): 0%
- Percent Weight Gain ([4]; .01 percent in diet): 98%
- Average Intestinal Lesion Score ([4]; .01 percent in diet): 0
- Percent Reduction Lesion Score ([4]; .01 percent in diet): 100%
- Percent Mortality ([5]; .0025 percent in diet): 0%
- Percent Weight Gain ([5]; .0025 percent in diet): 95%
- Average Lesion Score ([5]; .0025 percent in diet): 0.80
- Percent Mortality ([5]; .005 percent in diet): 0%
- Percent Weight Gain ([5]; .005 percent in diet): 89%
- Average Lesion Score ([5]; .005 percent in diet): 0
- Percent Reduction Lesion Score ([5]; .005 percent in diet): 100%
- Percent Mortality ([5]; .01 percent in diet): 0%
- Percent Weight Gain ([5]; .01 percent in diet): 89%
- Average Lesion Score ([5]; .01 percent in diet): 0
- Percent Reduction Lesion Score ([5]; .01 percent in diet): 100%
- Percent Mortality ([6]; .0025 percent in diet): 0%
- Percent Weight Gain ([6]; .0025 percent in diet): 94%
- Cecal Lesions, Average Lesion Score ([6]; .0025 percent in diet): 2.67
- Intestinal Lesions, Average Lesion Score ([6]; .0025 percent in diet): 0.13
- Intestinal Lesions, Percent Reduction Lesion Score ([6]; .0025 percent in diet): 84%
- Percent Mortality ([6]; .005 percent in diet): 0%
- Percent Weight Gain ([6]; .005 percent in diet): 99%
- Cecal Lesions, Average Lesion Score ([6]; .005 percent in diet): 0.07
- Intestinal Lesions, Average Lesion Score ([6]; .005 percent in diet): 0.07
- Cecal Lesions, Percent Reduction Lesion Score ([6]; .005 percent in diet): 98%
- Intestinal Lesions, Percent Reduction Lesion Score ([6]; .005 percent in diet): 91%
- Percent Mortality ([6]; .01 percent in diet): 0%
- Percent Weight Gain ([6]; .01 percent in diet): 98%
- Cecal Lesions, Average Lesion Score ([6]; .01 percent in diet): 0
- Intestinal Lesions, Average Lesion Score ([6]; .01 percent in diet): 0
- Cecal Lesions, Percent Reduction Lesion Score ([6]; .01 percent in diet): 100%
- Intestinal Lesions, Percent Reduction Lesion Score ([6]; .01 percent in diet): 100%
- LD50 [2]: 38 ± 6 mg/kg
- Body Weight Change ([7]; female, 5 ppm): +34.0 g
- Food ingested ([7]; female, 5 ppm): 224 g
- Body Weight Change ([7]; female, 10 ppm): +36.0 g
- Food ingested ([7]; female, 10 ppm): 218 g
- Body Weight Change ([7]; female, 20 ppm): +31.6 g
- Food ingested ([7]; female, 20 ppm): 229 g
- Body Weight Change ([7]; male, 5 ppm): +77.8 g
- Food ingested ([7]; male, 5 ppm): 281 g
- Body Weight Change ([7]; male, 10 ppm): +45.2 g
- Food ingested ([7]; male, 10 ppm): 221 g
- Body Weight Change ([7]; male, 20 ppm): +66.6 g
- Food ingested ([7]; male, 20 ppm): 288 g
- pKa [8]: 7.8
